Assays:
rabbit ileum = assay: Carbachol-induced Ca2+-sensitized force in α-toxin permeabilized rabbit ileum; settings: HS38 50 μM, at 20 min, pCa 6.5
Procedure: A. Typical force trace and graphical representation showing the effect of HS38 (50 μM) on carbachol-induced, Ca^2+ sensitized force in α-toxin permeabilized rabbit ileum. HS38 induced an approximate 30% decrease in the plateaued force at 20 min. (mean±S.E., n=7). B, Western blot analysis of RLC20 and MYPT1 Thr696 phosphorylation following treatment with HS38 (50 μM). […] C. Typical force trace showing the effect, of HS38 on Ca^2+-independent force production in rabbit ileum smooth muscle. […] E. Both the lag time to the onset of force (p <0.05, n=3) and the rate of force development (t1/2) (p <0.02, n=3) were increased following the addition of MC-LR in the presence of HS38 (mean±S.E., n=3).
Tissue Preparation and Force Measurements. […] Intact strips of mouse abdominal aorta were challenged with phenylephrine following pretreatment with HS38 or diluent, DMSO or HS38 and DMSO were added after maximal phenylephrine-induced force was achieved and force output measured. […] For Ca^2+ activating solutions, EGTA (10 mM) and a calculated amount of Ca-methanesulfonate was added to give the desired free Ca^2+ concentration ((Horiuti (1988) J. Physiol.-London 398, 131-148). […]

ROK2 = ROK2 (Rattus norvegicus, UniProt Q62868); assay: 33P-ATP filter-binding kinase assay
ROK2, sequence (Q62868 2-543): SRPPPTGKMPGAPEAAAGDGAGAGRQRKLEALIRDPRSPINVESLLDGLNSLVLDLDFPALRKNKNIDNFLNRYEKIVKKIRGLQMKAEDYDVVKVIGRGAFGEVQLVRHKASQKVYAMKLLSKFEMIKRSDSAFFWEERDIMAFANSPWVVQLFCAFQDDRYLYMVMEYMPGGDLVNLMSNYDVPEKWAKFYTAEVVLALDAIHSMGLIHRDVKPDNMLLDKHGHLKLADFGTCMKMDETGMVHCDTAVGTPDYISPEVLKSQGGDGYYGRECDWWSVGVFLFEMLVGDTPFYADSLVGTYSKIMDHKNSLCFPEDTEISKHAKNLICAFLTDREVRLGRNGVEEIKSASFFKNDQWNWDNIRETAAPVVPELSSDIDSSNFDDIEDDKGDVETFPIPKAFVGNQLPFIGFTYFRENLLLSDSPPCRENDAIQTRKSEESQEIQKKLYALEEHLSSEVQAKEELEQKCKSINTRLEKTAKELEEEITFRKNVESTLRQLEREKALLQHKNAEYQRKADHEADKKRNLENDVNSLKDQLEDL

LC20 monophosphorylation = test system: LC20 monophosphorylation; parameters: species or system rat
[1] = test system: rat caudal arterial smooth muscle (RTA); assay: Calyculin A-induced contraction of rat caudal arterial smooth muscle (RTA) strips
Procedure: Tissue preparation and Force Measurement for RTA smooth muscle: Caudal arteries were removed from male Sprague-Dawley rats (300-350 g) that had been anesthetized and euthanized according to protocols approved by the University of Calgary Animal Care and Use Committee. The arteries were cleaned of excess adventitia, de-endothelialized and cut into helical strips (1.5 mm×6 mm). Muscle strips were mounted on a Grass isometric force transducer (FT03C), and force was recorded. Intact tissues were treated with calyculin A (CLa, […]). At selected sampling points, muscle strips were flash-frozen in 10% (w/v) TCA, 10 mM DTT in acetone followed by 3×10 s washes in 10 mM DTT in acetone. Tissues were then lyophilized overnight. Protein was extracted from each arterial strip by incubation (16 h, 5° C.) in 0.5 mL of SDS-PAGE sample buffer.
In this case, calyculin A (CLa, 10^−7M)-induced contractions were used since inhibition of myosin phosphatase activity in RTA unmasks endogenous Ca^2+-independent LC20 kinase activities, including ZIPK. Experiments were performed with addition of inhibitors for ROK (HA-1152, 10^−6 M; GSK429286A, 10^−5M) in combination with HS-38. Combining ROK and ZIPK inhibitors had no effect on Ca^2+-sensitization (force generation or downstream ZIPK target phosphorylation).
Data were collected for RTA smooth muscle contraction in the presence and absence of HS-38, including measurements of contractile force development, and the concentration dependency of these effects. […] The t1/2 max value is defined as the time required for contractile force to reach 50% of maximal tone.
The latency period, i.e. the time from addition of calyculin A to the onset of contraction, and the half-time from the initiation of contraction to the plateau of the contractile response, were determined, in addition to the t1/2 values (the half-time from addition of calyculin A to the plateau of the contractile response) determined previously, in the absence and presence of HS-38. […] On the other hand, the steady-state level of force induced by calyculin A was unaffected by ZIPK inhibition. The results support the ability of HS38 to suppress the initiation and rate of contractile tone without altering the total force potential of the muscle.

## CC(Sc1nc2c(cnn2-c2cccc(Cl)c2)c(=O)[nH]1)C(N)=O (centres unmarked) [HS38]
Rabbit ileum
  decrease in plateaued carbachol-induced Ca2+-sensitized force: ~30%
ROK2
  activity against ROK2: completely inactive
ROK2; read-out: % Activity (10 μM HS38)
  activity at 10 µM: 91%
LC20 monophosphorylation
  levels of LC20 monophosphorylation induced by KCl and Ang II: could attenuate
[1]; calyculin A
  contractile force during the Ca2+ sensitization process: concentration-dependent attenuation
[1]; calyculin A 10^−7 M, increasing concentrations of HS-38
  t1/2max; time to reach 50% of maximal contractile force: concentration-dependent increases
[1]; calyculin A with HS-38, n = 28, mean ± SEM
  Latency (s): *654.7 ± 60.6 s
[1]; steady-state force, calyculin A with HS-38, n = 28, mean ± SEM
  % KCl contraction: **161.7 ± 8.4%

— patent US11999737B2, “Kinase inhibitors and related methods of use” (Duke University, priority 2014, dated 2024)
